# Laboratory results published in patent US6498126B1, “Herbicide combination with acylated aminophenylsulfonylureas” (Aventis CropScience GmbH, priority 1999, dated 2002).
# Tested on: Setaria lutescens
# Assay: Herbicidal action (field trials), post-emergence treatment, visual scoring of damage
# Type: in vivo
# Description: The seeds or rhizome pieces of typical harmful plants were planted and grown under natural field conditions. After the harmful plants had emerged, they were treated, as a rule at the 2-to 8-leaf stage, with various dosages of the compositions according to the invention at a water application rate of 100 to 400 I/ha (converted).
# After the treatment (approx. 4-6 weeks after application), the herbidical activity of the active ingredients or active ingredient mixtures was scored visually by comparing the treated plots with the untreated control plots. Damage and development of all aerial parts of the plants was recorded. Scoring was done on a percentage scale (100% action=all plants dead; 50% action=50% of the plants and green plant parts dead; 0% action=no discernible action=like control plot). The score figures of in each case 4 plots was averaged.
# The results are shown in the tables which follow, the action when using active ingredients A and B independently being stated in brackets.
smiles,measurement,setting,value
"COc1cc(OC)nc(NC(=O)NS(=O)(=O)c2cc(NC=O)ccc2C(=O)N(C)C)n1 [A1.1, N-[N-(4,6-dimethoxypyrimidin-2-yl)-aminocarbonyl]-2-(dimethyl-aminocarbonyl)-5-(formylamino)benzenesulfonamide]",Herbicidal effect on Setaria lutescens Damage in %,"Table 1, 35 gAS/ha, treatment at the 6-8 leaf stage, scoring 27 days after application",30%
same,Herbicidal effect on Setaria lutescens Damage in %,"Table 1, 70 gAS/ha, treatment at the 6-8 leaf stage, scoring 27 days after application",97%
same,Herbicidal effect on Setaria lutescens Damage in %,"Table 2, 35 gSA/ha, treatment at the 6-8 leaf stage, scoring 27 days after application",30%
same,Herbicidal effect on Setaria lutescens Damage in %,"Table 2, 70 gSA/ha, treatment at the 6-8 leaf stage, scoring 27 days after application",97%
same,Herbicidal effect on Setaria lutescens Damage in %,"Table 3, 35 gAS/ha, treatment at the 2-leaf stage, scoring 39 days after application",65%
same,Herbicidal effect on Setaria lutescens Damage in %,"Table 3, 70 gAS/ha, treatment at the 2-leaf stage, scoring 39 days after application",87%
same,Herbicidal effect on Setaria lutescens Damage in %,"Table 4, 35 gAS/ha, treatment at the 6-8 leaf stage, scoring 27 days after application",65%
same,Herbicidal effect on Setaria lutescens Damage in %,"Table 4, 70 gAS/ha, treatment at the 6-8 leaf stage, scoring 27 days after application",85%
"CS(=O)(=O)NC(=O)c1cc(Oc2ccc(C(F)(F)F)cc2Cl)ccc1[N+](=O)[O-] [Fumesafen (B2.9), 5-(2-chloro-α,α,α-trifluoro-p-tolyloxyl)N-methylsulfonyl-2-nitrobenzamide, reference compound]",Herbicidal effect on Setaria lutescens Damage in %,"Table 3, 240 gAS/ha, treatment at the 2-leaf stage, scoring 39 days after application",25%
"COc1cc(OC)nc(Sc2cccc(Cl)c2C(=O)[O-])n1.[Na+] [Pyrithiobac (B2.7), sodium 2-chloro-6-(4,6-dimethoxypyrimidin-2-ylthio)benzoate, reference compound]",Herbicidal effect on Setaria lutescens Damage in %,"Table 4, 105 gAS/ha, treatment at the 6-8 leaf stage, scoring 27 days after application",25%
"CCOc1nc(NC)nc(NC(=O)NS(=O)(=O)c2ccccc2C(=O)OC)n1 [ethametsulfuron (B2.6), methyl 2-{N-[N-(4-ethoxy-6-methylamino-1,3,5-triazin-2-yl)-aminocarbonyl]-aminosulfonyl}benzoate, reference compound]",Herbicidal effect on Setaria lutescens Damage in %,"Table 1, 15 gAS/ha, treatment at the 6-8 leaf stage, scoring 27 days after application",33%
